The record followed here is patent US20110117189A1, “OPHTHALMIC COMPOSITIONS FOR TREATING PATHOLOGIES OF THE POSTERIOR SEGMENT OF THE EYE” (S.I.F.I. Societa' Industria Farmaceutica Italiana S.P.A., priority 2008, published 2011).

The structures appear in SMILES notation.

The nature of the data set: In-vivo pharmacokinetic test: ocular distribution of dexamethasone after single administration to the conjunctival sac (LC/MS/MS). Also noted: species or system pigmented rabbits. The conditions noted are these: treated and non-treated eyes. As to the method:
Dexamethasone concentration in ocular tissues was determined by a LC/MS/MS method.
Two experiments were carried out on male pigmented rabbits weighing 1.8-2.2 kg divided into 2 treatment groups, of which only one eye was treated with: 50 μl of the composition containing dexamethasone sodium phosphate in 1% xanthan base (Group I) or 50 μl of dexamethasone sodium phosphate in solution (Group II). In the first experiment the animals were then killed at the following times: 30, 60, 90, 120, 180 and 240 minutes after treatment (n=6 animals for each time point). In the second experiment the animals were killed at these times: 15, 30 and 60 minutes after treatment (n=4 animals for each time point). The active principle was determined in the aqueous humour, vitreous, retina-choroid and plasma after suitable extraction from the biological tissue, by a LC/MS/MS method.

On to `C[C@@H]1C[C@H]2[C@@H]3CCC4=CC(=O)C=C[C@]4(C)[C@@]3(F)[C@@H](O)C[C@]2(C)[C@@]1(O)C(=O)CO` [dexamethasone], for which the “Concentrations of dexamethasone in the vitreous” value was “less than 10 ng/ml”.
